We go through 54 compounds from US7855309B2, “Pesticide benzyloxy- and phenetyl-substituted phenyl-amidine derivatives” (Bayer CropScience AG, priority 2005, dated 2010).

Data set [1] is described as follows: logP by HPLC on reversed-phase column (EEC Directive 79/831 Annex V.A8). The class given is physicochemical. The note with it: for chromatographic logP: reversed-phase HPLC column (C18). The protocol: Temperature: 40° C.; Mobile phases: 0.1% aqueous formic acid and acetonitrile; linear gradient from 10% acetonitrile to 90% acetonitrile.
Calibration was carried out using unbranched alkan-2-ones (comprising 3 to 16 carbon atoms) with known logP values (determination of the logP values by the retention times using linear interpolation between two successive alkanones).

In another data set the test system is Aedes aegypti larvae. Briefly: In vivo protective test on Aedes aegypti (AEDSAE U). The protocol:
In Vivo Protective Test on Aedes Aegypti (AEDSAE U)
Solvent: 1% N-methylpyrrolidone (NMP)
• 1% diacetonealcohol Dye: brillantsulfoflavin for staining water
To produce a suitable preparation of the active compound, the active compound is mixed with the stated amount of solvent, and the concentrate is diluted with staining water to the desired concentration.
Aedes aegypti larvae are pipetted with a preparation of active ingredient of the desired concentration.
After the specified period of time, mortality in % is determined. 100% means that all larvae have been killed, a 0% means that none of the larvae have been killed.

Another data set has as its system Myzus persicae. Kind of data set: In vivo protective test on Myzus persicae (MYZUPE). The note with it: Chinese cabbage leaf-disks, all instars, spray. The protocol: In Vivo Protective Test on Myzus persicae (MYZUPE)
Solvent: 78 parts by weight acetone
• 1.5 parts by weight dimethylformamide Dye: 0.5 parts by weight alkylarylpolyglcolether
To produce a suitable preparation of active compound, 1 part by weight of active compound is mixed with the stated amount of solvent and emulsifier, and the concentrate is diluted with emulsifier-containing water to the desired concentration.
Chinese cabbage (Brassica pekinesis) leaf-disks infected with all instars of the green peach aphid (Myzus persicae), are sprayed with a preparation of the active ingredient at the desired concentration.
After the specified period of time, mortality in % is determined. 100% means that all aphids have been killed; 0% means that none of the aphids have been killed.

Where [2] appears, read: HPLC, C18, 40° C., 0.1% aqueous formic acid and acetonitrile.

The structures appear in SMILES notation. Read-outs that look alike come from different tables or passages of the source.

Regarding `CCN(C)C=Nc1cc(C)c(OCc2ccc(Cl)cc2)cc1C` [Compound 1], the log partition coefficient (log P) – broadly, a log measure of how a compound divides between an organic and an aqueous phase – in data set [1] (setting [2]) turned out to be 2.14. Moreover, in the data set on Aedes aegypti larvae, the “activity (mortality)” value is given as “good activity”.

`CCN(C)C=Nc1cc(C)c(OCc2cccc(OCC(F)(F)F)c2)cc1C` [Compound 49]: the log partition coefficient (log P) in data set [1] (setting [2]) amounted to 2.21. The “activity (mortality)” value in the data set with Myzus persicae is on record as “good activity”.

As to `CCN(C)C=Nc1cc(C)c(OC(C)c2cccc(Cl)c2)cc1C` (stereo not drawn) [Compound 30], in data set [1] (setting [2]), the lipophilicity (log P) turned out to be 2.23. The “activity (mortality)” value in the data set with Myzus persicae is recorded as “good activity”.

Take `CCN(C)C=Nc1cc(C)c(OCc2cc(Cl)cc(C(F)(F)F)c2)cc1C` [Compound 19]: in data set [1] (setting [2]), the lipophilicity (log P) came to 2.54. Moreover, the “activity (mortality)” value with Myzus persicae is “good activity”.

For the compound `CCN(C)C=Nc1cc(C)c(OC(C)c2ccccc2Cl)cc1C` (stereo not drawn) [Compound 29], in data set [1] (setting [2]), the “log P” value is reported as 2.24. Further, the “activity (mortality)” value in the data set with Myzus persicae and with Aedes aegypti larvae was “good activity” each time.

Take `CCN(C)C=Nc1cc(C)c(OCc2ccc(C(F)(F)F)cc2)cc1C` [Compound 14]: in data set [1] (setting [2]), the lipophilicity (log P) came out at 2.28. The “activity (mortality)” value in the data set with Aedes aegypti larvae is listed as “good activity”.

Take `CCN(C)C=Nc1cc(C)c(OCc2ccccc2OC(F)(F)F)cc1C` [Compound 16]: the “log P” value in data set [1] (setting [2]) is 2.28. In addition, in the data set with Myzus persicae, the “activity (mortality)” value is recorded as “good activity”.

`CCN(C)C=Nc1cc(C)c(OCc2cc(C)ccc2C)cc1C` [Compound 56]: the lipophilicity (log P) in data set [1] (setting [2]) was found to be 2.23. The “activity (mortality)” value in the data set on Myzus persicae is “good activity”.

`CCN(C)/C=N/c1cc(C)c(OCc2cccc(C(F)(F)F)c2)cc1C` [Compound 9, N′-(2,5-dimethyl-4-{[3-(trifluoromethyl)benzyl]oxy}phenyl)-N-ethyl-N-methylimidoformamide]: the chromatographic logP came out at 2.24 in data set [1] (pH 2.3, read-out: log P (pH 2.3)); 2.24 in data set [1] (HPLC, C18, 40° C., 0.1% aqueous formic acid and acetonitrile, read-out: log P). The “activity (mortality)” value in the data set with Aedes aegypti larvae was “good activity”.

Regarding `CCN(C)C=Nc1cc(C)c(OCc2ccc(Oc3ccc(F)cc3)cc2)cc1C` [Compound 52], the “log P” value in data set [1] (setting [2]) is 2.8. Also, the “activity (mortality)” value with Myzus persicae was “good activity”.

In the case of `CCN(C)C=Nc1cc(C)c(OCc2c(Cl)cccc2Cl)cc1C` [Compound 3], in data set [1] (setting [2]), the “log P” value is given as 2.05. The “activity (mortality)” value in the data set with Myzus persicae and with Aedes aegypti larvae was “good activity” in each case.

With `CCN(C)C=Nc1cc(C)c(CCc2cc(C(F)(F)F)cc(C(F)(F)F)c2)cc1C` [Compound 35], the “log P” value in data set [1] (setting [2]) turned out to be 2.79. In addition, the “activity (mortality)” value in the data set with Myzus persicae is “good activity”.

In the case of `CCN(C)C=Nc1cc(C)c(OCc2ccc(Cl)c(Cl)c2)cc1C` [Compound 13], the log partition coefficient (log P) in data set [1] (setting [2]) came out at 2.38. The “activity (mortality)” value in the data set with Myzus persicae and in the data set on Aedes aegypti larvae was “good activity” each time.

For the compound `CCN(C)C=Nc1cc(C)c(OC(C)c2ccc(Cl)cc2)cc1C` (stereo not drawn) [Compound 31], the “log P” value in data set [1] (setting [2]) is reported as 2.26. In the data set on Myzus persicae, the “activity (mortality)” value is recorded as “good activity”.

On to `CCN(C)C=Nc1cc(C)c(OCc2c(F)cccc2Cl)cc1C` [Compound 61], for which the lipophilicity (log P) in data set [1] (setting [2]) is 2.09. The “activity (mortality)” value with Myzus persicae is listed as “good activity”.

For the compound `Cc1ccc(COc2cc(C)c(N=CN3CCCCC3)cc2C)cc1` [Compound 124], the lipophilicity (log P) in data set [1] (setting [2]) was 2.23.

With `CCN(C)C=Nc1cc(C)c(OCc2ccc(C#N)cc2)cc1C` [Compound 10], the “log P” value in data set [1] (setting [2]) came to 1.7.

With `CCN(C)C=Nc1cc(C)c(OCc2c(C)cc(C)cc2C)cc1C` [Compound 86], in data set [1] (setting [2]), the log partition coefficient (log P) was determined as 2.42.

Regarding `CCN(C)C=Nc1cc(C)c(OCc2ccc(F)c(F)c2)cc1C` [Compound 15], in data set [1] (setting [2]), the “log P” value was 2.02.

Take `CCN(C)C=Nc1cc(C)c(OCc2ccccc2C)cc1C` [Compound 66]: the log partition coefficient (log P) in data set [1] (setting [2]) is reported as 2.06.

As to `CCN(C)C=Nc1cc(C)c(OCc2ccc(C)c(C)c2)cc1C` [Compound 64], the lipophilicity (log P) in data set [1] (setting [2]) is listed as 2.23. Moreover, in the data set with Myzus persicae, the “activity (mortality)” value was “good activity”.

On to `CCN(C)C=Nc1cc(C)c(OCc2ccc(OC)cc2)cc1C` [Compound 78], for which the “log P” value in data set [1] (setting [2]) worked out at 1.92.

In the case of `Cc1cc(OC(C)c2ccc(F)cc2)c(C)cc1N=CN1CCCCC1` (racemic) [Compound 93], in data set [1] (setting [2]), the “log P” value came to 2.18.

For `Cc1cc(OCc2ccc(C#N)cc2)c(C)cc1N=CN1CCCCC1` [Compound 98], the “log P” value in data set [1] (setting [2]) was found to be 1.94.

For `CCN(C)C=Nc1cc(C)c(OCc2cccc(F)c2)cc1C` [Compound 80], the lipophilicity (log P) in data set [1] (setting [2]) came out at 1.99.

On to `CCN(C)C=Nc1cc(C)c(CCc2ccccc2C)cc1C` [Compound 38], for which the lipophilicity (log P) in data set [1] (setting [2]) turned out to be 2.38.

On to `CCN(C)C=Nc1cc(C)c(OCc2cccc(C(=O)OC(C)(C)C)c2)cc1C` [Compound 54], for which the “log P” value in data set [1] (setting [2]) is reported as 2.42.

For `C=Cc1cccc(COc2cc(C)c(N=CN(C)CC)cc2C)c1` [Compound 50], the lipophilicity (log P) in data set [1] (setting [2]) worked out at 2.16.

In the case of `CCN(C)C=Nc1cc(C)c(OCc2ccc3nsnc3c2)cc1C` [Compound 27], the “log P” value in data set [1] (setting [2]) is recorded as 1.86.

For `Cc1cc(OCc2cc(C(F)(F)F)ccc2Cl)c(C)cc1N=CN1CCCCC1` [Compound 119], in data set [1] (setting [2]), the lipophilicity (log P) was 2.58.

In the case of `CCN(C)C=Nc1cc(C)c(OCc2ccc(F)cc2)cc1C` [Compound 2], in data set [1] (setting [2]), the “log P” value was 1.99.

As for `CCN(C)C=Nc1cc(C)c(OCc2cc(C(F)(F)F)ccc2Cl)cc1C` [Compound 20], in data set [1] (setting [2]), the “log P” value turned out to be 2.44. In the data set on Myzus persicae, the “activity (mortality)” value was “good activity”.

Turning to `CCN(C)C=Nc1cc(C)c(OCc2cccc(C#N)c2)cc1C` [Compound 74], the “log P” value in data set [1] (setting [2]) is 1.83.

As for `CCN(C)C=Nc1cc(C)c(OCc2cc(C)cc(C)c2)cc1C` [Compound 60], the lipophilicity (log P) in data set [1] (setting [2]) is 2.26.

`CCN(C)C=Nc1cc(C)c(OCc2ccc(C(C)C)cc2)cc1C` [Compound 82]: the “log P” value in data set [1] (setting [2]) came to 2.51.

On to `Cc1cc(OCc2c(F)cccc2Cl)c(C)cc1N=CN1CCCCC1` [Compound 101], for which the lipophilicity (log P) in data set [1] (setting [2]) turned out to be 2.16.

For the compound `CCN(C)C=Nc1cc(C)c(OCc2cccc(Br)c2)cc1C` [Compound 65], the lipophilicity (log P) in data set [1] (setting [2]) stood at 2.18. Further, in the data set with Myzus persicae, the “activity (mortality)” value is “good activity”.

On to `CCN(C)C=Nc1cc(C)c(OCc2c(F)cccc2F)cc1C` [Compound 48], for which, in data set [1] (setting [2]), the “log P” value amounted to 1.94.

`CCN(C)C=Nc1cc(C)c(OCc2ccc(Oc3ccc(SC)cc3)cc2)cc1C` [Compound 72]: the “log P” value in data set [1] (setting [2]) is listed as 2.74. Moreover, the “activity (mortality)” value in the data set with Myzus persicae is listed as “good activity”.

For `CCN(C)C=Nc1cc(C)c(OCc2ccc(Cl)cc2C(F)(F)F)cc1C` [Compound 18], the lipophilicity (log P) in data set [1] (setting [2]) was found to be 2.52. The “activity (mortality)” value in the data set on Myzus persicae and in the data set on Aedes aegypti larvae was “good activity” each time.

Take `Cc1ccc(COc2cc(C)c(N=CN3CCCCC3)cc2C)cc1Cl` [Compound 117]: in data set [1] (setting [2]), the lipophilicity (log P) was determined as 2.39.

Consider `CCN(C)C=Nc1cc(C)c(OC(C)c2c(Cl)cccc2Cl)cc1C` (stereo not drawn) [Compound 4], for which the log partition coefficient (log P) in data set [1] (setting [2]) is listed as 2.52. In the data set with Aedes aegypti larvae, the “activity (mortality)” value is “good activity”.

Regarding `CCN(C)C=Nc1cc(C)c(OCc2ccccc2SC(F)(F)F)cc1C` [Compound 68], the log partition coefficient (log P) in data set [1] (setting [2]) is 2.36. The “activity (mortality)” value in the data set on Myzus persicae is given as “good activity”.

For `COc1cc(Cl)c(COc2cc(C)c(N=CN3CCCCC3)cc2C)cc1OC` [Compound 102], the lipophilicity (log P) in data set [1] (setting [2]) is on record as 2.09.

Take `Cc1cc(OCc2ccc(C(F)(F)F)cc2)c(C)cc1N=CN1CCCCC1` [Compound 126]: the “log P” value in data set [1] (setting [2]) turned out to be 2.58.

For `CCN(C)C=Nc1cc(C)c(OCc2ccc(Oc3ccc(Cl)cc3)cc2)cc1C` [Compound 73], the lipophilicity (log P) in data set [1] (setting [2]) was determined as 2.8. Further, the “activity (mortality)” value in the data set with Myzus persicae is recorded as “good activity”.

On to `Cc1cc(OCc2cc3c(cc2Cl)OCO3)c(C)cc1N=CN1CCCCC1` [Compound 92], for which, in data set [1] (setting [2]), the lipophilicity (log P) is given as 2.16.

Take `CCN(C)C=Nc1cc(C)c(OCc2cccc(OC)c2)cc1C` [Compound 81]: the “log P” value in data set [1] (setting [2]) was found to be 1.97.

With `Cc1cc(OCc2cccc(C(F)(F)F)c2)c(C)cc1N=CN1CCCCC1` [Compound 96], the lipophilicity (log P) in data set [1] (setting [2]) is on record as 2.29.

As to `CCN(C)C=Nc1cc(C)c(OCc2cccc3nsnc23)cc1C` [Compound 51], the log partition coefficient (log P) in data set [1] (setting [2]) is given as 1.92.

Take `CCN(C)C=Nc1cc(C)c(OCc2ccc(C(F)(F)F)cc2Cl)cc1C` [Compound 25]: the “log P” value in data set [1] (setting [2]) was 2.47. For the same compound, the “activity (mortality)” value in the data set with Myzus persicae is “good activity”.

With `CCN(C)C=Nc1cc(C)c(OCc2cccc(C=NOC)c2)cc1C` [Compound 12], in data set [1] (setting [2]), the “log P” value is on record as 2.07.

With `CCN(C)C=Nc1cc(C)c(OCc2cccc(SC(F)(F)F)c2)cc1C` [Compound 69], the “log P” value in data set [1] (setting [2]) was 2.45. Also, the “activity (mortality)” value in the data set with Myzus persicae is recorded as “good activity”.

With `CCN(C)C=Nc1cc(C)c(OCc2cccc(C)c2C)cc1C` [Compound 89], the lipophilicity (log P) in data set [1] (setting [2]) stood at 2.29.
